Results taken from PMC12406196, “Anticoronavirus Activity of Uridine Glycoconjugates Containing a 1,2,3-Triazole Moiety” (Journal of Medicinal Chemistry, 2025).
Entries after “also recorded” stand apart in the source; their conditions may differ. Read-outs that look alike come from different tables or passages of the source.

Tests used:
[1] = MTS-based cell viability assay in LLC-Mk2 cells; settings: Macaca mulatta, read-out: CC50 (HCoV-NL63 block)
Experimental: (§1) LR7, LLC-Mk2 or Vero cells were seeded in 96-well plates and cultured overnight. Next, the medium was changed to a new one supplemented with different concentrations (in triplicate) of analyzed compounds. Following the 2 days (LR7 and Vero) or 4 days (LLC-Mk-2) of incubation, CellTiter 96 AQueous nonradioactive cell proliferation assay (Promega) was performed according to the manufacturer’s instruction. The half-maximal cytotoxic concentration (CC50) was calculated as the concentration of a compound needed to reduce cell viability by 50% using GraphPad Prism software (version 5.01, GraphPad Software, San Diego, CA).

[2] = tested on: murine hepatitis virus strain A59 (MHV); assay: Reduction of MHV cytopathic effect (CPE) in LR7 cells, MTS/PMS readout; assay type: cell-based
Experimental: LR7 cells were seeded in a 96-well plate and cultured overnight. Next, the cells were infected with MHV at an MOI value of 0.01 in medium without FBS. Following 1 h of incubation, the medium containing the virus was collected and cells were covered with a medium supplemented with different concentrations (in triplicate) of the analyzed compounds or DMSO. 24 h p.i. cells viability was evaluated by CellTiter 96 AQueous nonradioactive cell proliferation assay (Promega) according to the manufacturer’s instruction.

[3] = MTS-based cell viability assay in Vero cells; settings: African green monkey, 96 h per table footnote, read-out: CC50 (SARS-CoV-2 block)
Experimental: as §1

HCoV-NL63 RNA synthesis = assay: HCoV-NL63 RNA level in infected LLC-Mk2 cells, RT-PCR; assay type: cell-based, human coronavirus NL63; settings: MOI 0.01, 96 h p.i.
Experimental: LR7 or LLC-Mk2 were cultured in 12-well plate overnight. Next, LR7 cells were infected with MHV at an MOI value of 1 for 1 h or LLC-Mk2 cells were infected with HCoV-NL63 at an MOI value of 0.01 for 2 h. Following removal of unbound virus, cells were cultured with medium supplemented with different concentrations of selected compounds. 8 h p.i. (MHV) or 96 h p.i. (HCoV-NL63) cells were collected and total RNA was isolated by CoV RNA kit (A&A Biotechnology, Poland) according to the manufacturer’s instruction. To evaluate levels of viral RNA in infected cells Qiagen One-Step RT-PCR reaction was performed. Following reverse transcription, the PCR reaction was carried out using primers: F: […], R: […] for amplification of a fragment of HCoV-NL63 genome (position: 26418–26960 bp NC_005831.2) and F: […] and R: […] for amplification of a fragment of MHV genome (position: 30341–30902 bp FJ647225.1). For internal control fragment of β-actin mRNA was reverse transcribed and amplified using primers For: […] and Rev: […].

SARS-CoV-2 = SARS-CoV-2 infectivity in supernatants of infected Vero cells, plaque assay; assay type: cell-based; settings: read-out: IC50 (SARS-CoV-2)
Experimental: Vero cells were seeded in appropriate plates and allowed to reach an approximately 90% confluence. For infection, 200 μL of viral suspension containing 10^5 pfu (SARS-CoV-2 strain SARS-CoV-2/human/Czech Republic/951/2020) was added to each well and incubated for 2 h at 37 °C to allow virus adsorption. After the incubation, the viral medium was removed, and the wells were washed gently with phosphate-buffered saline (PBS). Test compounds were prepared in serial dilutions to final concentrations of 50, 25, 12.5, 6.25, 3.125, and 0 μM in the medium (DMEM containing 2% FBS). The compounds were added in quadruplicate to the infected cells. The plates were then incubated for 48 h at 37 °C. Following the 48 h treatment period, the supernatants were removed, and plaque assays in Vero E6 cells were performed to assess viral titers. Cells were fixed and stained 4 days after infection to visualize plaques, as described previously.
(§2) The half-maximum inhibitory concentration value (IC50) indicating the concentration of compound needed to reduce virus titer by 50% in comparison to the control, was evaluated by GraphPad software (version 5.01, GraphPad Software, San Diego, CA).

[4] = tested on: human coronavirus strain NL63 (HCoV-NL63); assay: HCoV-NL63 N protein expression in LLC-Mk2 cells, Western blot and densitometry; assay type: cell-based; settings: 50 μM, MOI 0.01, 4 days p.i., Western blot/densitometry
Experimental: LLC-Mk2 monolayers grown in 24-well plates were infected with HCoV-NL63 at an MOI value of 0.01 for 2 h. Unbound virus was removed, and cells were cultured in medium supplemented with different concentrations of compounds. Four days postinfection, cells were collected and lysed in CellLyticM Cell Lysis Reagent (Sigma). Following the protein separation by SDS-PAGE and transfer to PVDF membranes, proteins were immunoblotted using specific mouse anti-N NL63 Abs (Eurofins, Spain) or rabbit anti-β-catenin Abs (Santa Cruz), followed by antimouse or antirabbit secondary antibodies conjugated with HRP. Proteins were visualized and analyzed by chemiluminescence using the UVITEC Cambridge Alliance MINI HD detection system. The densitometric analysis of cells treated with 50 μM dose of a panel of glycoconjugates was performed based on three biological replicates of N and β-catenin immunoblots. The N protein levels were expressed as a percentage relative to DMSO-treated infected cells, while β-catenin levels were expressed as a percentage relative to noninfected control cells. The data were presented as the ratio of N/β-catenin for each sample, normalized accordingly.

[5] = MTS-based cell viability assay in LR7 cells; set-up: species or system mouse; settings: mouse, LR7 cells, 48 h, 0–100 μM, read-out: CC50 (MHV block)
Experimental: as §1

LR7 cells = assay: MTS-based cell viability assay in LR7 cells; set-up: species or system mouse; settings: 50 μM, uninfected LR7 cells
Experimental: as §1

[6] = tested on: human coronavirus strain NL63 (HCoV-NL63); assay: HCoV-NL63 titer in medium of infected LLC-Mk2 cells, foci-forming assay; assay type: cell-based
Experimental: LR7 or LLC-Mk2 cells were infected at a MOI of 0.01 with MHV and HCoV-NL63, respectively, and treated with selected compounds at a concentration ranging from 0 to 50 μM. Culture supernatants were collected 1 day (MHV) or 4 days (HCoV-NL63) after infection. […]
as §2

[7] = tested on: SC-VLP entry into HEK-hACE2 cells; assay: SARS-CoV-2 VLP (SC-VLP) internalization assay in HEK-hACE2 cells, luciferase; assay type: cell-based; settings: 12.5 μM during SC-VLP production
[8] = tested on: murine hepatitis virus strain A59 (MHV); assay: MHV titer in medium of infected LR7 cells, plaque assay; assay type: cell-based; settings: for IC50: Murine coronavirus
Experimental: LR7 or LLC-Mk2 cells were infected at a MOI of 0.01 with MHV and HCoV-NL63, respectively, and treated with selected compounds at a concentration ranging from 0 to 50 μM. Culture supernatants were collected 1 day (MHV) or 4 days (HCoV-NL63) after infection. Virus titer was determined by plaque assay.
as §2

[9] = set-up: method as in not printed at the place; settings: clinical use; ref not given; cited from earlier work
[10] = tested on: murine hepatitis virus (MHV); set-up: method as in not printed at the place; settings: tunicamycin treatment; ref not given; cited from earlier work

CC(=O)OC[C@H]1O[C@@H](SCc2cn(C[C@H]3O[C@@H](n4ccc(=O)[nH]c4=O)[C@H](O[Si](C)(C)C(C)(C)C)[C@@H]3O[Si](C)(C)C(C)(C)C)nn2)[C@H](OC(C)=O)[C@@H](OC(C)=O)[C@H]1OC(C)=O [Compound 21, 2′,3′-di-O-tert-Butyldimethylsilyl-5′-deoxy-5′-[4-(2″,3″,4″,6″-tetra-O-acetyl-β-D-galactopyranosylthiomethyl)-1,2-3-triazol-1-yl]-uridine]
CC50 at 96 h [1]: 46.7 µM | protection against MHV-induced CPE ([2]; 50 μM, MOI 0.01, 24 h): significantly reduced cell death; also recorded: nearly eliminating CPE | concentration above which MHV-induced CPE was significantly reduced ([2]; MOI 0.01, 24 h p.i.): above 6.25 μM | CC50 at 96 h [3]: > 100 µM | concentration that effectively suppressed HCoV-NL63 RNA synthesis (HCoV-NL63 RNA synthesis): 12.5 µM | IC50 (SARS-CoV-2; Severe acute respiratory syndrome coronavirus 2, Vero): 19 µM | IC50 (SARS-CoV-2; Severe acute respiratory syndrome coronavirus 2, Vero cells, supernatant 48 h after infection, plaque assay): ~19 µM | HCoV-NL63 N protein level [4]: significantly reduced; also recorded: No N protein was detected | CC50 at 48 h [5]: 65.3 µM | reduction of cell viability (cytotoxicity in uninfected cells) (LR7 cells): no detectable toxicity | IC50 ([6]; 96 h, virus titer released from LLC-Mk2 cells, MOI 0.01, 4 days p.i., read-out: IC50 (HCoV-NL63)): 5.7 µM | IC50 ([6]; LLC-MK2, read-out: IC50 (HCoV-NL63)): 5.56 µM | antiviral efficacy against HCoV-NL63 compared with compound 24 ([6]; dose-response 0–25 μM, LLC-Mk2 cells): slightly lower activity | reduction of SC-VLP entry compared with the control [7]: 80% | dose above which no virus was detectable (MHV titer) ([8]; LR7 cells, 24 h p.i., plaque assay): above 6.25 μM | IC50 ([8]; LR7, read-out: IC50 (MHV)): 4.51 µM | IC50 ([8]; virus titer released from LR7 cells, MOI 0.01, 24 h p.i., plaque assay, read-out: IC50 (MHV)): 4.5 µM

CCCC(=O)O[C@H]1CN2CC[C@H](O)[C@@H]2[C@@H](O)[C@@H]1O [celgosivir]
adverse effects in humans [9]: diarrhea, weight loss, and flatulence

CCCCN1C[C@H](O)[C@@H](O)[C@H](O)[C@H]1CO [miglustat]
adverse effects in humans [9]: diarrhea, weight loss, and flatulence

tunicamycin
effect on MHV viral titers [10]: significantly reducing viral titers
